US20250375417A1, “OREXIN RECEPTOR 2 (OX2R) AGONIST FOR USE IN NARCOLEPSY TYPE 1 (NT1)” (TAKEDA PHARMACEUTICAL COMPANY LIMITED, priority 2024, published 2025)

Experiments:
Assay type in all cases: in vivo, human
participants with NT1 [1] = test: Exit interviews after Week 8, Phase 2 NT1 trial; conditions: most Compound A participants (n=21)
Protocol: Treatment Satisfaction Questionnaire for Medication (TSQM) and exit interview results from the study were evaluated to explore the impact of Compound A treatment on individuals with ICSD-3-confirmed NT1. Participants aged 18-70 years, with an Epworth Sleepiness Scale (ESS) score>12, and ≥4 partial/complete episodes of cataplexy/week were included in the trial. Participants were randomized to oral Compound A (0.5 mg twice 3 hours apart, 2 mg twice 3 hours apart, 2 mg then 5 mg 3 hours later, or 7 mg once daily), or placebo.
FIG. 19 and FIG. 20 show the results of exit interview outcomes at Week 8. […] Symptoms rated as most important to improve from baseline were EDS, cataplexy and impaired cognitive function (FIG. 19); most frequently cited impacts were work/school-related, social/leisure activities and general quality of life (FIG. 20). Changes in impacts were meaningful for Compound A-treated participants but not for placebo-treated participants. Overall, 94.7% of Compound A-treated participants (18/19 respondents) would be willing to recommend Compound A to others with narcolepsy.

participants with NT2 = test: Safety (TEAEs), long-term extension (LTE) study, NT2 participants
Protocol: Eligible participants were age 18-70 years, with Epworth Sleepiness Scale (ESS) score>12 and no other current EDS-related medical conditions. Participants were randomized 1:1:1 to daily oral Compound A 2 mg twice 3 hours apart, 2 mg then 5 mg 3 hours later, or placebo. Study endpoints included change from baseline to Week 8 in mean Sleep Onset Latency on the Maintenance of Wakefulness Test (mean SOL-MWT; primary endpoint), ESS total score, and incidence of treatment-emergent adverse events (TEAEs). Participants who completed the placebo-controlled study could enroll in a ˜2-year Long Term Extension (LTE) study. LTE TEAE data up to Jan. 25, 2024 are reported.
This was a phase 2/3 multicenter, dose-blind, long-term extension (LTE) study of Compound A. Participants from controlled studies conducted with Compound A, who had up to a 3-month dosing gap between their parent study and the screening period for this study, were eligible to participate in this study.
Day 1 dosing for all participants occurred in-clinic with PK and safety assessments. Participants who were undergoing nocturnal polysomnography (nPSG) and an MWT during the final assessment of their Compound A parent study had the option of staying overnight in the clinic on Day −1 so they were already in the clinic for Day 1 the following day. […]

participants with NT1 [2] = test: Weekly cataplexy rate (WCR), Phase 2 NT1 trial
Protocol: In some aspects of the methods described herein, the subject experiences a lower weekly cataplexy rate (WCR) after a treatment period compared to an untreated subject.
Cataplexy events are recorded for 14 consecutive days, starting after completion of washout of any anti-cataplexy medications and completed before Day-2 are considered for WCR study entry criterion. The total number of events/week (WCR) is calculated based on the number of cataplexy episodes averaged over 2 weeks, with at least 11 out of 14 days required to calculate the WCR.
Randomization was stratified by region. Starting on the morning of Day 1, the study drug was administered at approximately the same time each day for 8 or 12 weeks. If the participant wished to enroll in the long-term extension (LTE) study described in Example 3 but the LTE study had not started at the participant's site when the participant completed the Week 8 visit of the current study, the participant was allowed to continue in the current study for an additional 4 weeks.
The following doses were studied: • Compound A Dose Regimen 1:0.5 mg twice daily approximately 3 hours apart. • Compound A Dose Regimen 2:2 mg twice daily approximately 3 hours apart. • Compound A Dose Regimen 3:2 mg followed by 5 mg approximately 3 hours apart. • Compound A Dose Regimen 4:7 mg once daily (QD). • Other products required for the study: Matching placebo. […]

CCS(=O)(=O)N[C@@H]1[C@H](Cc2cccc(-c3cc(F)cc(F)c3)c2F)N(C(=O)C(C)(C)O)CC1(F)F [Compound A, N-{(2S,3R)-4,4-difluoro-1-(2-hydroxy-2-methylpropanoyl)-2-[(2,3′,5′-trifluoro[1,1′-biphenyl]-3-yl)methyl]pyrrolidin-3-yl}ethanesulfonamide]
Exit interview outcome: change in narcolepsy symptoms and functional impacts (participants with NT1 [1]): meaningful improvements in narcolepsy symptoms and functional impacts | Participants discontinued due to TEAEs (participants with NT2): 3 | Participants who experienced TEAEs (participants with NT2; treated participants (41/57), data up to Jan. 25, 2024): 71.9% | Change from baseline to Week 8 in WCR versus placebo (participants with NT1 [2]; 2 mg/2 mg and 2 mg/5 mg dose groups, adjusted for multiple comparisons): statistically significant changes | Median WCR versus placebo (participants with NT1 [2]; twice daily dosing (FIG. 5)): significantly reduced cataplexy events
